Reference: patent US11648291B2, “Method of using PRD, PRD-S TAD, ZF7 peptide or mixture thereof to inhibit cellular response to inflammatory stimuli or treat cytokine-storm-mediated diseases” (GUANGZHOU MEDICAL UNIVERSITY, priority 2020, dated 2023)
Values joined by “and” are separate entries in the source; they are usually repeats but may differ in a detail not shown here. Equal entries are not always repeated.

Key:
[1] = tested on: TNFα-induced IL-8 expression in HCT-8 cells; assay: TNFα/IL-1β-induced IL-8 expression in HCT-8 cells (IL-8 ELISA); type: cell-based, human; settings: for expression of IL-8 by the peptides themselves: no stimulus; for TNFα- or IL-1β-induced IL-8 expression: HCT-8, with or without the transfection agent, 1 μg/ml, TNFα 2 ng/ml or IL-1β 1 ng/ml, more peptide needed without transfection
Method: The indicated amount of the peptides was transfected into HCT-8 as described in the method. The transfected cells were stimulated with TNFα (4 hours after peptide transfection) for 24 hours. IL-8 expression was measured by ELISA. The results are the representative of 3 similar experiments.
(§1) HCT-8 cells were transfected with the peptides or just treated with them without transfection (1 μg/ml) and stimulated with TNFα (2 ng/ml) or IL-1-β (1 ng/ml) for 24 hours. PMBCs were treated with the indicated amount of each peptide (no transfection) and stimulated with TNFα (2 ng/ml) for 24 hours. IL-8 expression was measured by ELISA. The results are the representative of 2 similar experiments.
HCT-8 cells were stimulated with TNFα (2 ng/ml) with the indicated amount of PRD-S peptide for 24 hours. IL-8 expression was measured by ELISA.
Human PBMCs and THP-1 cells were cultured in RPMI-1640 while FLS and HCT-8 cells in DMEM, supplemented with 10% fetal bovine serum and maintained in a humidified incubator at 37° C. with 5% CO2 in air.
(§2) IL-8 LEISA kit was purchased from ThermoFisher and ELISA was performed according to the manufacturer's instruction.
Peptides were transfected into the cells using Pierce Protein Transfection Reagent Kit™ according to the manufacturer's instruction. The Pierce Reagent in methanol was pipetted into a tube and the solvent was evaporated in the hood. Peptides were diluted in PBS and mixed with the dried Pierce Reagent. The peptides/Reagent complex was added to the cells in serum-free medium. After 4 hours, the medium containing serum was added to the cells and the cells were used for experiments.
(§3) In order to test the hypotheses that the PRD and TAD peptides inhibit the response to pro-inflammatory stimuli such as TNFα, IL-1β, and LPS, the peptides were synthesized and transfected into HCT-8 cells using a protein transfection reagent (Pierce). […] Next, we tested whether they can inhibit the expression of genes induced by TNFα, IL-1β, and LPS in human PBMCs. Both peptides indeed inhibited the expression of IL-6, IL-1β, IL-8, and arginase induced by TNFα, IL-1β, or LPS (FIG. 4B). Since both peptides are highly hydrophobic, we tested whether they can penetrate cells. Indeed, both peptides inhibited TNFα- or IL-1β-induced IL-8 expression with or without the transfection agent in HCT-8 cells, although it took more peptides to produce the similar level of inhibition (FIG. 4C, left panel). […] We tested a random peptide sequence ([…], SEQ ID NO:41) as a control and it had no effect on the cellular response to TNFα, IL-1β, and LPS (data not shown).
Based on the sequence analysis of the YAP1 mutants (FIG. 2A), we tested whether the shortest PRD peptide (M1) inhibits the TNFα response. We named this peptide as PRD-S(small).
(§4) Recent findings identified the ZF7 (zinc finger domain 7) as the key domain for A20 to suppress inflammation (FIG. 6A). We hypothesized that ZF7 peptide inhibit the TNFα response just as PRD and TAD peptides do. […] Next, we tested whether ZF7 inhibits LPS response in vivo. We injected mice with a high dose of LPS (200 μg/mouse) or LPS+ZF7 (200 μg/mouse) and collected the sera after 3 hours. […] In order to tract ZF7 peptide inside cells, biotin was attached to the N-terminus to ZF7 peptide.

[2] = tested on: LPS-induced mortality; assay: LPS-induced mortality in mice; type: in vivo, mice (C57B/6); settings: mice n=5, LPS 200 μg + ZF7 300 μg i.p., observed 7 days; LPS control group 60% mortality
Method: Mice (8-week old, C57B/6, n=5) were injected with LPS (200 μg) or LPS (200 μg)+ZF7 (300 μg) in 200 μl PBS intraperitoneally.
Since ZF7 inhibited LPS-induced cytokine production in mice (Table 1), we next tested whether ZF7 peptide can protect mice from LPS-induced mortality.

[3] = tested on: TNFα response in HCT-8 cells (C, A20 KD, YAP KD); assay: TNFα response (IL-8 ELISA) in control, A20 KD and YAP KD HCT-8 cells; type: cell-based, human; settings: TNFα 2 ng/ml overnight
Method: HCT-8 cells (C, A20 KD, YAP KD) were treated with PRD, TAD, or ZF7 peptide (1 μg/ml) and stimulated with TNFα (2 ng/ml) overnight. IL-8 levels in the medium were measured by ELISA. The results are the representative of 2 similar experiments. IL-8 LEISA kit was purchased from ThermoFisher and ELISA was performed according to the manufacturer's instruction. Next, we investigated how PRD, TAD, and ZF7 peptides inhibit the TNFα response. The PRD, TAD, and ZF7 peptides have the same effect as either YAP9 OE (over-expression) or A20 OE, respectively. Since YAP9 OE or A20 OE is futile in the absence of the other (FIGS. 5B and 5C), PRD or TAD peptide should also require the presence of A20 while ZF7 peptide the presence of YAP9. Indeed, our data supported this notion. When both YAP9 and A20 are present (C), all 3 peptides inhibited the TNFα response.

[4] = tested on: cellular response to TNFα, IL-1β, and LPS; assay: Cellular response to TNFα, IL-1β and LPS, data not shown (control peptide, biotin-tagged peptides); type: cell-based; settings: for effect of biotin on the activity of the peptide: biotin attached to the N-terminus
Source text: as §3, §4

[5] = tested on: LPS response in mice; assay: LPS response in mice: serum cytokines and chemokines by LegendPlex (Table 1); type: in vivo, C57BL/6 mice
Method: as §4
Table.1 ZF7 peptide inhibits the LPS response in mice. C57BL/6 mice (n=2) were injected intraperitoneally with LPS (200 μg/mouse) or LPS (200 μg/mouse)+ZF7 peptide (200 μg/mouse) and the sera were collected after 3 hours. The cytokines and chemokines in the sera were measured by LegendPlex according to the manufacturer's instruction. The number represents pg/ml.

[6] = tested on: gene expression induced by TNFα, LPS, or IL-1β in human PBMCs; assay: Gene expression induced by TNFα, LPS or IL-1β in human PBMCs (ELISA, LegendPlex); type: cell-based; settings: transfected PRD 1 μg or TAD 0.5 μg, TNFα 2 ng/ml, LPS 50 ng/ml or IL-1β 2 ng/ml, 24 hours
Method: PBMCs were transfected with either PRD (1 μg) or TAD (0.5 μg) as described in the method. The transfected cells were stimulated with TNFα (2 ng/ml), LPS (50 ng/ml), or IL-1β (2 ng/ml), 4 hours after peptide transfection, for 24 hours. IL-8 expression was measured by ELISA and IL-6, IL-1β, and arginase levels were measured by flow cytometry using LegendPlex as described in the method. The results are the representative of 3 similar experiments.
as §1, §2
All steps of PBMC preparation were carried out at room temperature. The blood from the same donor was pooled and mixed 1:1 with pre-warmed (room temperature) 1×PBS (without Ca^2+ or Mg^2+). […]
To simultaneously quantify the concentration of the soluble inflammatory cytokines and chemokines, the cell culture supernatant was analyzed by using the bead-based multiplex LEGENDplex™ (Biolegend) according to the manufacturer's instruction. […]

[7] = control HCT-8 (both YAP9 and A20 present), peptide 1 μg/ml
[8] = serum 3 hours after i.p. LPS 200 μg/mouse + ZF7 200 μg/mouse, one line per mouse (n=2)
[9] = HCT-8, peptides transfected, TNFα 24 hours, ELISA

Sequence: QPPGQGPPSGPGQPA (listed as Homo sapiens) [PRD-S]
- TNFα-induced IL-8 expression ([1]; HCT-8, PRD-S without transfection, TNFα 2 ng/ml, 24 hours): inhibited TNFα-induced IL-8 expression in a dose-response manner

Sequence: PPKQRCRAPACDHFGNAKCNGYCNECYQFKQMYG (listed as Homo sapiens) [ZF7]
- LPS-induced mortality [2]: no mortality
- TNFα response (IL-8) ([3]; A20 KD HCT-8, peptide 1 μg/ml): retained its full inhibitory capacity
- TNFα response (IL-8) ([3]; YAP KD HCT-8, peptide 1 μg/ml): ineffective
- TNFα response (IL-8) [3, 7]: inhibited
- effect of biotin on the activity of the peptide [4]: did not affect the activity
- all the cytokines and chemokines measured in sera ([5]; mice, LPS 200 μg/mouse + ZF7 200 μg/mouse, sera after 3 hours): almost completely inhibited
- CCL2 [5, 8]: 238.13 pg/mL and 222.5 pg/mL
- GMCSF [5, 8]: <18.38 pg/mL
- IFNβ [5, 8]: <4.36 pg/mL
- IFNγ [5, 8]: <0.53 pg/mL and 87.58 pg/mL
- IL1-β [5, 8]: <4.33 pg/mL and 14.99 pg/mL
- IL-1α [5, 8]: <26.12 pg/mL and 57.24 pg/mL
- IL-6 [5, 8]: 4142.37 pg/mL and 1570.50 pg/mL
- IL-10 [5, 8]: <9.48 pg/mL and 65.31 pg/mL
- IL-17A [5, 8]: <4.47 pg/mL and 129.84 pg/mL
- IL-27 [5, 8]: <8.56 pg/mL and 137.96 pg/mL
- TNFα [5, 8]: <4.10 pg/mL and 44.45 pg/mL
- TNFα response (IL-8 ELISA) ([1]; HCT-8, without transfection, TNFα 2 ng/ml overnight): significantly inhibited

Sequence: ARNDCEQGHILKMFPSTWYV [random peptide sequence, reference compound]
- effect on the cellular response to TNFα, IL-1β, and LPS ([4]; control peptide): no effect

Sequence: GQPPSQPPQGQGPPSGPGQPAPAATQAAPQ (listed as Homo sapiens) [PRD]
- TNFα response (IL-8) ([3]; A20 KD HCT-8, peptide 1 μg/ml): significantly less effective
- TNFα response (IL-8) ([3]; YAP KD HCT-8, peptide 1 μg/ml): retained their full inhibitory capacity
- TNFα response (IL-8) [3, 7]: inhibited
- effect of biotin on the activity of the peptide [4]: did not affect the activity
- expression of IL-6, IL-1β, IL-8, and arginase induced by TNFα, IL-1β, or LPS [6]: inhibited
- TNFα-induced IL-8 expression [1, 9]: suppressed
- expression of IL-8 by the peptides themselves ([1]; HCT-8, peptides transfected): did not affect
- TNFα- or IL-1β-induced IL-8 expression ([1]; 24 hours): inhibited

Sequence: RQAMRININPSTANSPKCQE (listed as Homo sapiens) [TAD]
- TNFα response (IL-8) ([3]; A20 KD HCT-8, peptide 1 μg/ml): significantly less effective
- TNFα response (IL-8) ([3]; YAP KD HCT-8, peptide 1 μg/ml): retained their full inhibitory capacity
- TNFα response (IL-8) [3, 7]: inhibited
- effect of biotin on the activity of the peptide [4]: did not affect the activity
- expression of IL-6, IL-1β, IL-8, and arginase induced by TNFα, IL-1β, or LPS [6]: inhibited
- relative potency in suppressing TNFα-induced IL-8 expression ([1]; HCT-8, peptides transfected): more potent than PRD peptide
- TNFα-induced IL-8 expression [1, 9]: suppressed
- expression of IL-8 by the peptides themselves ([1]; HCT-8, peptides transfected): did not affect
- TNFα- or IL-1β-induced IL-8 expression ([1]; 24 hours): inhibited
